Where a name gives a salt, the structure may show the parent alone.
Tests used:
[1] = system: Human neuroblastoma SKN-SH cells, resistant to doxorubicin; assay: Chemoresistance: cancer cell viability (MTT) in presence or absence of doxorubicin; format: cell-based; conditions: compound 50 ug/mL, MTT
Excerpt: A method for evaluating a compound's propensity to overcome cancer cell chemoresistance is described in “Caspase Inhibition Switches Doxorubicin-Induced Apoptosis To Senescence”, Abdelhadi Rebbaa, Xin Zheng, Pauline M Chou and Bernard L Mirkin, Oncogene (2003) 22, 2805-2811. Resistant human cancer cells to doxorubicin were selected by stepwise exposure to drug concentrations ranging from 10^−9 M-10^−6 M over 3 months. They were then subjected to treatment with the doxorubicin alone or in combination with hydroxylamine compounds 1-12, 16, 20, and 21 (Table 4). The cells were incubated with the drugs for 72 hours, and cell viability was measured by the MTT assay. Additionally, molecular pathways that might be associated with increased chemo-responsiveness with these compounds were investigated. p Cancer Cell Viability Data for certain hydroxylamines in the presence or absence of Doxorubicin is listed in Table 4.
A method for evaluating a compound's propensity to overcome cancer cell chemoresistance is described in “Caspase Inhibition Switches Doxorubicin-Induced Apoptosis To Senescence”, Abdelhadi Rebbaa, Xin Zheng, Pauline M Chou and Bernard L Mirkin, Oncogene (2003) 22, 2805-2811. Human neuroblastoma SKN-SH cells (ATCC Cat. No. HTB-11) were cultured in Dulbecco's Modified Eagles Medium (DMEM; Gibco, Grand Island, N.Y.) supplemented with 10% fetal bovine serum (FBS; Sigma-Aldrich, St. Louis, Mo.) at 37° C. in a 95% Air/5% CO2 atmosphere. Resistant human cancer cells to doxorubicin were selected by stepwise exposure to drug concentrations ranging from 10^−9M-10^−6M over 3 months. They were then subjected to treatment with the doxorubicin alone or in combination with hydroxylamine compounds. The cells were incubated with the drugs for 72 hours, and cell viability was measured by the MTT assay. This consists of adding 10 μl/well of MTT (5 mg/ml solution) and incubation for 4 h at 37° C. The precipitate formed is then solubilized by addition of 100 μl of HCL 0.5 N/Isopropanol and incubation for 15 hours at 37° C. The optical density is measured at 570 nm and cell survival is estimated by comparison to untreated cells. Each point represents 4 wells data represent average ± SE. Additionally, molecular pathways that might be associated with increased chemo-responsiveness with these compounds were investigated.
Cytotoxic activity of doxorubicin and hydroxylamine analogs were quantitatively determined by a colorimetric assay utilizing 3-(4,5-dimethyl-2-thiazolyl) 2,5-diphenyl tetrazolium bromide (MTT; Sigma-Aldrich, St. Louis, Mo.). Briefly, cells were seeded at 10^4 cells/well in 96-well plates and maintained in culture for 24 hours at 37° C. in DMEM supplemented with 10% FBS. Drugs were added to designated wells and cells were incubated for […], following which MTT (10 μL of 5 mg/ml solution) was added to each 100 μl well and incubated for 4 hours at 37° C. The cells were solubilized by incubation with 100 μl of HCl 0.5N in isopropanol for 15 hours at 37° C. The optical density of this solution was measured at 570 nm and the percentage of viable cells estimated by comparison with untreated control cells.

[2] = system: Angiogenesis in CAM model; assay: Neovascularization on the CAM (chick chorioallantoic membrane model of angiogenesis); format: in vivo, chicken; conditions: for Percent inhibition of angiogenesis in CAM model at 30 ug: unit assumed
Procedure: In vivo neovascularization was examined by the method previously described by Auerbach et al. (J. Dev. Biol. 41:391-394 (1974)). Ten-day old chicken embryos were purchased from Spafas, Inc. (Preston, Conn.) and were incubated at 37° C. with 55% relative humidity. In the dark, with the aid of a candling lamp, a small hole was punctured in the shell concealing the air sac with a hypodermic needle. A second hole was punctured in the shell on the broadside of the egg directly over an […] portion of the embryonic membrane, as observed during candling. An artificial air sac was created beneath the second hole by applying gentle vacuum to the first hole using a small rubber squeeze bulb. The vacuum caused the chorioallantoic membrane (CAM) to separate from the shell.
A window, approximately 1.0 cm^2, was cut in the shell over the dropped CAM with the use of a small crafts grinding wheel (Dremel, Division of Emerson Electric Company Racine, Wis.). The window allowed direct access to the underlying CAM.
A pro-angiogenic agent was added to induce new blood vessel branches on the CAM of 10-day old embryos. Filter disks of #1 filter paper (Whatman International, United Kingdom) were punched using a small puncher and were soaked in 3 mg/mL cortisone acetate (Sigma, St. Louis, Mo.) in a solution (95% ethanol and water). The disks were subsequently air dried under sterile conditions. The disks were then suspended in PBS (Phosphate Buffered Saline) and placed on growing CAMs. Filters treated with TP-H (TEMPOL-H) or TEMPOL and/or H2O2 or TP-H and/or bFGF or VEGF were placed on the first day of the 3-day incubation.
For inducing angiogenesis, sterile filter disks were saturated with bFGF (1 μg/ml) (Life Technologies, Gaithersburg, Md.) or other pro-angiogenesis factors and control disks were saturated with PBS without Calcium and Magnesium. […]
Using sterile forceps one filter/CAM was placed from the window. The window was sealed with Highland brand transparent tape.
After 24-48 hr, 10-25 ul of test agent was injected intravenously or added topically into the CAM membrane. Eight-Ten eggs/treatment group were used.
CAM tissue directly beneath filter disk was harvested from embryos treated 48 hours prior with compound or control. Tissues were washed three times with PBS. Sections were placed in a 35-mm petri dish (Nalge Nunc, Rochester, N.Y.) and examined under a SV6 stereomicroscope (Karl Zeiss, Thornwood, N.Y.) at 50× magnification.
CAM sections from Petri dish were examined using SV6 stereomicroscope (Karl Zeiss) at 50× magnification. Digital images of CAM sections from Petri dish were collected using a 3-CCD color video camera system (Toshiba America, New York, N.Y.). These images were analyzed using Image-Pro Plus software (Media Cybernetics, Silver Spring, Md.).
The number of branch points in blood vessels within the circular region superimposed to the area of a filter disk was counted for each section. After incubation at 37° C. with 55% relative humidity for 3 days, the CAM tissue directly beneath each filter disk was resected from control and treated CAM samples. Tissues were washed three times with PBS. Sections were placed in a 35-mm Petri dish (Nalge Nunc; Rochester, N.Y.) and were examined under a SV6 stereomicroscope (Karl Zeiss; Thornwood, N.Y.) at 50× magnification. Digital images of CAM sections adjacent to filters were collected using a 3-CCD color video camera system (Toshiba America; New York, N.Y.) and analyzed with the Image-Pro Plus software (Media Cybernetics; Silver Spring, Md.).
The number of vessel branch points contained in a circular region equal to the area of a filter disk was counted for each section. Percent inhibition data are expressed as the quotient of the experimental value minus the negative control value divided by the difference between the positive control value and the negative control value. […]

Row | Molecule | Mean OD (×10^−3), cancer cell viability ([1]; Dox. 10^−6 M present (+)) | Mean OD (×10^−3), cancer cell viability ([1]; Dox. absent (−)) | Percent inhibition of angiogenesis in CAM model at 30 ug ([2]; 30 ug) [%] | CAM data % Inhibition ([2]; 300 ug) [%] | inhibition in vivo at 0.3 mg ([2]; Gallus gallus, 300 ug) [%] | inhibition in vivo at 0.03 mg ([2]; Gallus gallus, 30 ug) [%]
1 | CC1(C)CC(Oc2nsnc2N2CCOCC2)C(C)(C)N1O.Cl (centres unmarked) [Compound 32, 4-(4-(1-hydroxy-2,2,5,5-tetramethylpyrrolidin-3-yloxy)-1,2,5-thiadiazol-3-yl)morpholine] | 231.50 ×10^−3 | 985.67 ×10^−3 | – | – | – | –
2 | CC(C)c1nsnc1OCC1=CC(C)(C)N(O)C1(C)C [Compound 51] | 71.00 ×10^−3 | 1208.25 ×10^−3 | 43 | – | – | –
3 | Vitamin E [reference compound] | – | – | – | 22 ± 6 | – | –
4 | CC1(C)CC(NC(=O)CCCCC2CCSS2)CC(C)(C)N1O (centres unmarked) [Compound 49, 5-(1,2-dithialan-3-yl)-N-(1-hydroxy-2,2,6,6-tetramethylpiperidin-4-yl)pentanamide] | 195.00 ×10^−3 | 1330.25 ×10^−3 | – | – | – | –
5 | CC1(C)CC(c2nn[nH]n2)CC(C)(C)N1O.Cl [Compound 30, 1-hydroxy-2,2,6,6-tetramethyl-4-(2H-tetrazol-5-yl)piperidine] | 310.00 ×10^−3 | 1301.25 ×10^−3 | 90.4 | – | – | –
6 | COc1ccc(C2=C(c3cc(OC)c(OC)c(OC)c3)C(C)(C)N(O)C2(C)C)cc1C=O [Compound 46, 5-(2,5,-dihydro-4-(3,4,5-trimethoxyphenyl)-1-hydroxy-2,2,5,5-tetramethyl-1H-pyrrol-3-yl)-2-methoxybenzaldehyde] | 32.75 ×10^−3 | 79.00 ×10^−3 | 45.1 | – | – | –
7 | CC1(C)CC(CO)CC(C)(C)N1O.Cl [Compound 34, (1-hydroxy-2,2,6,6-tetramethylpiperidin-4-yl)methanol] | 302.75 ×10^−3 | 1168.25 ×10^−3 | – | – | – | –
8 | CC1(C)CC(NC(=O)C2CC2)C(C)(C)N1O.Cl (centres unmarked) [Compound 38, N-(1-hydroxy-2,2,5,5-tetramethylpyrrolidin-3-yl)cyclopropanecarboxamide] | 378.50 ×10^−3 | 1202.75 ×10^−3 | – | – | – | –
9 | O=C1O[C@H]([C@@H](O)CO)C(O)=C1O [Vitamin C, reference compound] | – | – | – | – | 15 ± 7 | –
10 | CC1(C)C=C(CC2CNCCO2)C(C)(C)N1O.Cl.Cl (centres unmarked) [Compound 36] | 297.00 ×10^−3 | 1110.75 ×10^−3 | – | – | – | –
11 | CC1(C)CC(=O)C(C)(C)N1O.Cl [Compound 37, 1-hydroxy-2,2,5,5-tetramethylpyrrolidin-3-one] | 366.25 ×10^−3 | 1329.75 ×10^−3 | – | – | – | –
12 | CC1(C)CC(NC(=O)CCN2CCOCC2)CC(C)(C)N1O.Cl [Compound 26, N-(1-hydroxy-2,2,6,6-tetramethylpiperidin-4-yl)-3-morpholinopropanamide] | 261.50 ×10^−3 | 1056.33 ×10^−3 | 72 | – | – | –
13 | CC1(C)CC(NC(=O)C2CC2)CC(C)(C)N1O.Cl [Compound 31, N-(1-hydroxy-2,2,6,6-tetramethylpiperidin-4-yl)cyclopropanecarboxamide] | 322.25 ×10^−3 | 1175.25 ×10^−3 | 38.8 | – | – | –
14 | CC1(C)CC(Oc2nsnc2Cl)CC(C)(C)N1O.Cl [Compound 13, 4-(4-chloro-1,2,5-thiadiazol-3-yloxyl)-1-hydroxyl-2,2,6,6-tetramethylpiperidine] | – | – | 51.2 | – | – | –
15 | COc1cc(C2=CC(C)(C)N(O)C(C)(C)C2)cc(OC)c1OC.Cl [Compound 50, 1-Hydroxy-2,3,6-trihydro-4-(3,4,5-trimethoxyphenyl)-2,2,6,6-tetramethylpiperidine] | 54.50 ×10^−3 | 1226.33 ×10^−3 | 92.3 | – | – | –
16 | 1-Hydroxy-4-(4-Flurophenyl)-2,2,6,6-tetramethylpiperidine [Compound 62] | 40.25 ×10^−3 | 184.75 ×10^−3 | 43.8 | – | – | –
17 | CC1(C)CC(O)CC(C)(C)N1O [TEMPOL-H HCl, 2,2,6,6-tetramethylpiperidine-1,4-diol, reference compound] | – | – | – | – | – | 43 ± 10
18 | CC1(C)CC(Oc2nsnc2N2CCN(c3ccccc3)CC2)CC(C)(C)N1O.Cl.Cl [Compound 53, 4-(4-phenylpiperazin-1-yl)-3-[(2,2,6,6-tetramethyl-1-hydroxypiperidinyl)-4-oxy]-1,2,5-thiadiazole] | 170.00 ×10^−3 | 1333.75 ×10^−3 | – | – | – | –
19 | CC1(C)C=C(CO)C(C)(C)N1O [Compound 8] | 197.25 ×10^−3 | 392.50 ×10^−3 | 88 | – | – | –
20 | COc1cc(COC2CC(C)(C)N(O)C(C)(C)C2)cc(OC)c1OC.Cl [Compound 48, 1-Hydroxyl-4-(3,4,5-trimethoxybenzyloxy)-2,2,6,6-tetramethylpiperidine] | 50.67 ×10^−3 | 1118.00 ×10^−3 | – | – | – | –
21 | CN1CCN(c2nsnc2OC2CC(C)(C)N(O)C(C)(C)C2)CC1 [Compound 52] | 195.00 ×10^−3 | 1186.33 ×10^−3 | 68.3 | – | – | –

Reference: patent publication US20080280890A1, “HYDROXYLAMINE COMPOUNDS AND METHODS OF THEIR USE” (priority 2007, published 2008)
